ChEMBL document CHEMBL5038618, “Discovery of PT-65 as a highly potent and selective Proteolysis-targeting chimera degrader of GSK3 for treating Alzheimer's disease” (Eur J Med Chem, 2021)
Active and inactive are the calls of the source. No cut-off for these calls is given here.

Experiments:
SH-SY5Y [1] = experiment: Effect on tau protein expression in human SH-SY5Y cells assessed as reduction on phosphorylated tau Ser404 residue level at 62.5 to 500 nM pretreated for 2 hrs followed by Abeta42 coincubation for 72 hrs by Westernblot analysis; format: functional, cell-based; settings: dose 62.5-500 nM, time 74.0 hrs
SH-SY5Y [2] = experiment: Induction of apoptosis in human SH-SY5Y cells assessed as live cells at 250 nM preincubated for 2 hrs followed by coincubation with Abeta42 and measured after 72 hrs by Annexin V-FITC/propidium iodide staining based flow cytometry (Rvb=94.8%); format: functional; settings: time 74 hrs
Rattus norvegicus [3] = experiment: Antialzheimer activity against hippocampal tissue of okadaic acid induced Sprague-Dawley rat assessed as reduction on GSK3alpha protein level at 200 to 600 uM, iv by western blot assay; format: functional, organism-based; settings: Hippocampus, dose 200-600 µM
Rattus norvegicus [4] = experiment: Antialzheimer activity against hippocampal tissue of okadaic acid induced Sprague-Dawley rat assessed as reduction on tau protein level at 200 to 600 uM, iv by immunohistochemical staining based analysis; format: functional, organism-based; settings: Hippocampus, dose 200-600 µM
SH-SY5Y [5] = experiment: Downregulation of GSK3alpha expression in human SH-SY5Y cells at 62.5 to 500 nM pretreated for 2 hrs followed by Abeta42 coincubation for 72 hrs by Westernblot analysis; format: functional, cell-based; settings: dose 62.5-500 nM, time 74.0 hrs
Rattus norvegicus [6] = experiment: Improvement in learning and spatial memory in okadaic acid induced Sprague-Dawley rat assessed as increase in time spent in target quadrant at 200 to 600 uM, iv measured after 6 days by Morris water maze test; format: functional, organism-based; settings: dose 200-600 µM, time 6.0 day
SH-SY5Y [7] = experiment: Induction of apoptosis in human SH-SY5Y cells assessed as necrotic cells at 125 nM preincubated for 2 hrs followed by coincubation with Abeta42 and measured after 72 hrs by Annexin V-FITC/propidium iodide staining based flow cytometry (Rvb=0.7%); format: functional; settings: time 74 hrs
[8] = Downregulation of GSK3alpha expression in human SH-SY5Y cells accessed as fold change in GSK3alpha expression at 1 uM measured after 4 hrs by proteomic analysis; format: functional
SH-SY5Y [9] = experiment: Induction of GSK3beta degradation in human SH-SY5Y cells assessed as maximum degradation at 1 uM measured after 9 hrs by western blot assay; format: cell-based
SH-SY5Y [10] = experiment: Induction of GSK3beta degradation in human SH-SY5Y cells assessed as recovery of GSK3beta protein pretreated for 12 hrs followed by compound washout and measured upto 36 hrs by western blot assay; format: cell-based; settings: time 48.0 hrs
[11] = target: Glycogen synthase kinase-3 beta (Homo sapiens, UniProt P49841); settings: dose microM <=0.00975
Description: Binding affinity to recombinant GSK3beta (unknown origin) assessed as association rate constant upto 0.00975 uM by SPR analysis

SH-SY5Y [12] = experiment: Cytotoxicity against human SH-SY5Y cells assessed as cell viability upto 100 uM measured after 72 hrs by CCK8 assay; format: functional, cell-based; settings: dose microM <=100, time 72.0 hrs
SH-SY5Y [13] = experiment: Induction of apoptosis in human SH-SY5Y cells assessed as live cells at 62.5 nM preincubated for 2 hrs followed by coincubation with Abeta42 and measured after 72 hrs by Annexin V-FITC/propidium iodide staining based flow cytometry (Rvb=94.8%); format: functional; settings: time 74 hrs
Rattus norvegicus [14] = experiment: Antialzheimer activity against hippocampal tissue of okadaic acid induced Sprague-Dawley rat assessed as reduction on GSK3alpha protein level at 200 to 600 uM, iv by immunohistochemical staining based analysis; format: functional, organism-based; settings: Hippocampus, dose 200-600 µM
[15] = target: T1, Protein cereblon/Glycogen synthase kinase-3 beta (Homo sapiens, UniProt P49841+Q96SW2); experiment: Protac activity at CRBN/GSK3beta in human SH-SY5Y cells assessed as induction of GSK3beta degradation at 0.1 uM measured after 24 hrs; format: cell-based
Target sequence in this assay (P49841 whole entry, looked up): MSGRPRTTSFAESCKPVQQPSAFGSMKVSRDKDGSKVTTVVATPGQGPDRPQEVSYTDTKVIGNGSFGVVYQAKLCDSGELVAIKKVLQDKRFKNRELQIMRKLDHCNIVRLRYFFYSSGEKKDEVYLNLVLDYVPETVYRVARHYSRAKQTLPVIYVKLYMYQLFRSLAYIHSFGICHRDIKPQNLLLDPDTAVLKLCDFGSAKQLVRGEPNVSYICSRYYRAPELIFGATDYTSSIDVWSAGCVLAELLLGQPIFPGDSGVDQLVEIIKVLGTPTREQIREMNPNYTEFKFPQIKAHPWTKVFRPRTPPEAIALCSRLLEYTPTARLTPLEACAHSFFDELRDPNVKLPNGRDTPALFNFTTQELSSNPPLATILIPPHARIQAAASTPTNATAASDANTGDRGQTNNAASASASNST
Target sequence in this assay (Q96SW2 whole entry, looked up): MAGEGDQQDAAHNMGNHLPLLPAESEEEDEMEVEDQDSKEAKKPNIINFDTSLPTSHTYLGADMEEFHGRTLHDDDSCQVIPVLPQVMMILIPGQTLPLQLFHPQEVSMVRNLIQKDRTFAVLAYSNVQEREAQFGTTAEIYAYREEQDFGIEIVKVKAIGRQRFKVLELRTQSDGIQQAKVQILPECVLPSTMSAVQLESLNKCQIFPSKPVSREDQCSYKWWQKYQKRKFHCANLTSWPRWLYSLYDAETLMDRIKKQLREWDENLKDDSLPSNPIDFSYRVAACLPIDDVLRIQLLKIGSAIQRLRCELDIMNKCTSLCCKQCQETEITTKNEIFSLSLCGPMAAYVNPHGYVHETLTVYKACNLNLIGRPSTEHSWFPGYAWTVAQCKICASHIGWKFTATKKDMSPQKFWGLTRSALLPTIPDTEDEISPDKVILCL

[16] = target: T1, Protein cereblon/Glycogen synthase kinase-3 beta; experiment: Protac activity at CRBN/GSK3beta in human SH-SY5Y cells assessed as induction of GSK3beta degradation measured after 24 hrs; format: cell-based
Target sequence in this assay (P49841 whole entry): as the sequence (P49841 whole entry, looked up) above
Target sequence in this assay (Q96SW2 whole entry): as the sequence (Q96SW2 whole entry, looked up) above

[17] = target: Glycogen synthase kinase-3 alpha (Homo sapiens) (UniProt P49840); experiment: Induction of GSK3alpha degradation in human SH-SY5Y cells assessed as maximum degradation at 1 uM measured after 9 hrs by western blot assay; format: cell-based
[18] = target: T2, Protein cereblon/Glycogen synthase kinase-3 alpha (Homo sapiens, UniProt P49840+Q96SW2); experiment: Protac activity at CRBN/GSK3alpha in human SH-SY5Y cells assessed as GSK3alpha degradation at 1 uM pretreated with MG-132 for 2 hrs followed by compound addition and measured after 24 hrs; format: cell-based
Target sequence in this assay (P49840 2-483 limits assumed): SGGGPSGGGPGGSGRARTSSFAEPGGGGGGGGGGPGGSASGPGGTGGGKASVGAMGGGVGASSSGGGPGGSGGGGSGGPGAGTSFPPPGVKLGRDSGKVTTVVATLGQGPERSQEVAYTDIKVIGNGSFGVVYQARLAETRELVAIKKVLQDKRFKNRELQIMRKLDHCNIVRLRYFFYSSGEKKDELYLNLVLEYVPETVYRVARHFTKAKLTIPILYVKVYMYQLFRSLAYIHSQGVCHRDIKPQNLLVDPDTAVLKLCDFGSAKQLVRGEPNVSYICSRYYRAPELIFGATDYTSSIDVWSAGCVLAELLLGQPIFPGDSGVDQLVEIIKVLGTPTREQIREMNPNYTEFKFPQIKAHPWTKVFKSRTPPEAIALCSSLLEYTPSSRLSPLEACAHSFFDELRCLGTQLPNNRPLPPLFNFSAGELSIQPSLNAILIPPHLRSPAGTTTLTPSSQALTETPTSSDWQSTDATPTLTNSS
Target sequence in this assay (Q96SW2 whole entry partner): as the sequence (Q96SW2 whole entry, looked up) above

Rattus norvegicus [19] = experiment: Antialzheimer activity against hippocampal tissue of okadaic acid induced Sprague-Dawley rat assessed as reduction on tau protein level at 200 to 600 uM, iv by western blot assay; format: functional, organism-based; settings: Hippocampus, dose 200-600 µM
[20] = target: Glycogen synthase kinase-3 alpha (Homo sapiens) (UniProt P49840); experiment: Induction of GSK3alpha degradation in human SH-SY5Y cells assessed as recovery of GSK3alpha protein pretreated for 12 hrs followed by compound washout and measured upto 36 hrs by western blot assay; format: cell-based; settings: time 48.0 hrs
SH-SY5Y [21] = experiment: Induction of apoptosis in human SH-SY5Y cells assessed as late apoptotic cells at 125 nM preincubated for 2 hrs followed by coincubation with Abeta42 and measured after 72 hrs by Annexin V-FITC/propidium iodide staining based flow cytometry (Rvb=3.5%); format: functional; settings: time 74 hrs
[22] = target: T2, Protein cereblon/Glycogen synthase kinase-3 alpha; experiment: Protac activity at CRBN/GSK3alpha in human SH-SY5Y cells assessed as induction of GSK3alpha degradation at 0.1 uM measured after 24 hrs; format: cell-based
Target sequence in this assay (P49840 2-483 limits assumed): as the sequence (P49840 2-483 limits assumed) above
Target sequence in this assay (Q96SW2 whole entry partner): as the sequence (Q96SW2 whole entry, looked up) above

SH-SY5Y [23] = experiment: Induction of apoptosis in human SH-SY5Y cells assessed as early apoptotic cells at 62.5 nM preincubated for 2 hrs followed by coincubation with Abeta42 and measured after 72 hrs by Annexin V-FITC/propidium iodide staining based flow cytometry (Rvb=1%); format: functional; settings: time 74 hrs
Rattus norvegicus [24] = experiment: Antialzheimer activity against okadaic acid induced Sprague-Dawley rat assessed as reduction in escape latency time to hidden platform at 200 to 600 uM, iv measured upto 5 days by Morris water maze test; format: functional, organism-based; settings: dose 200-600 µM, time day <=5
SH-SY5Y [25] = experiment: Induction of apoptosis in human SH-SY5Y cells assessed as necrotic cells at 250 nM preincubated for 2 hrs followed by coincubation with Abeta42 and measured after 72 hrs by Annexin V-FITC/propidium iodide staining based flow cytometry (Rvb=0.7%); format: functional; settings: time 74 hrs
SH-SY5Y [26] = experiment: Induction of apoptosis in human SH-SY5Y cells assessed as late apoptotic cells at 62.5 nM preincubated for 2 hrs followed by coincubation with Abeta42 and measured after 72 hrs by Annexin V-FITC/propidium iodide staining based flow cytometry (Rvb=3.5%); format: functional; settings: time 74 hrs
[27] = target: T2, Protein cereblon/Glycogen synthase kinase-3 alpha; experiment: Protac activity at CRBN/GSK3alpha in human SH-SY5Y cells assessed as GSK3alpha degradation at 1 uM pretreated with pomalidomide for 2 hrs followed by compound addition and measured after 24 hrs; format: cell-based
Target sequence in this assay (P49840 2-483 limits assumed): as the sequence (P49840 2-483 limits assumed) above
Target sequence in this assay (Q96SW2 whole entry partner): as the sequence (Q96SW2 whole entry, looked up) above

[28] = target: T2, Protein cereblon/Glycogen synthase kinase-3 alpha; experiment: Protac activity at CRBN/GSK3alpha in human SH-SY5Y cells assessed as induction of GSK3alpha protein degradation measured after 24 hrs; format: cell-based
Target sequence in this assay (P49840 whole entry): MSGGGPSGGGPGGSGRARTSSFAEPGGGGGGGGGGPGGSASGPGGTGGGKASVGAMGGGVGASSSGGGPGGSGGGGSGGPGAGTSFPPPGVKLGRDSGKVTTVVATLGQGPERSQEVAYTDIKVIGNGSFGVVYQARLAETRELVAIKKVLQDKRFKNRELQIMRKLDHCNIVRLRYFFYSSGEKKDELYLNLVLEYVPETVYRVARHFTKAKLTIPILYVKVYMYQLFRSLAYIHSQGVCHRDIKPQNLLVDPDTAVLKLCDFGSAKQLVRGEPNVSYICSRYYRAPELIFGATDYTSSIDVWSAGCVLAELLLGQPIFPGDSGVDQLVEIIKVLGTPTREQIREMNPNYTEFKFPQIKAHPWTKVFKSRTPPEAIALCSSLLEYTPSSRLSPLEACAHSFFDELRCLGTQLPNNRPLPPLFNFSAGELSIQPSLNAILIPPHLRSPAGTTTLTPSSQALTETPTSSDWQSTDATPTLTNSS
Target sequence in this assay (Q96SW2 whole entry): as the sequence (Q96SW2 whole entry, looked up) above

[29] = target: T2, Protein cereblon/Glycogen synthase kinase-3 alpha; experiment: Protac activity at CRBN/GSK3alpha in human SH-SY5Y cells assessed as induction of GSK3alpha protein degradation at 1 uM measured after 24 hrs; format: cell-based
Target sequence in this assay (P49840 2-483 limits assumed): as the sequence (P49840 2-483 limits assumed) above
Target sequence in this assay (Q96SW2 whole entry partner): as the sequence (Q96SW2 whole entry, looked up) above

SH-SY5Y [30] = experiment: Induction of apoptosis in human SH-SY5Y cells assessed as early apoptotic cells at 250 nM preincubated for 2 hrs followed by coincubation with Abeta42 and measured after 72 hrs by Annexin V-FITC/propidium iodide staining based flow cytometry (Rvb=1%); format: functional; settings: time 74 hrs
SH-SY5Y [31] = experiment: Induction of apoptosis in human SH-SY5Y cells assessed as live cells at 125 nM preincubated for 2 hrs followed by coincubation with Abeta42 and measured after 72 hrs by Annexin V-FITC/propidium iodide staining based flow cytometry (Rvb=94.8%); format: functional; settings: time 74 hrs

Sequence of Glycogen synthase kinase-3 alpha (Homo sapiens) (P49840 2-483 limits assumed): as the sequence (P49840 2-483 limits assumed) above
Sequence of Glycogen synthase kinase-3 beta (P49841 whole entry, looked up): as the sequence (P49841 whole entry, looked up) above

For `Nc1ncc(-c2ccc(S(=O)(=O)N3CCN(CCCCc4cn(CCOCCOCCOCCOCCOCCNc5cccc6c5C(=O)N(C5CCC(=O)NC5=O)C6=O)nn4)CC3)cc2)nc1C(=O)Nc1cccnc1` (stereo unspecified), the Activity (SH-SY5Y [1]) was “Dose-Dependent Effect”, the Activity (SH-SY5Y [2]) was 89.5% and the Activity (Rattus norvegicus [3]) was “Active”. The Activity (Rattus norvegicus [4]) was “Active”, the Activity (SH-SY5Y [5]) was “Dose-Dependent Effect” and the Activity (Rattus norvegicus [6]) was “Active”. For the same compound, the Activity (SH-SY5Y [7]) was 3.3%, the “fold change (FC)” value [8] was 0.35 and the Activity (SH-SY5Y [9]) was “Active”. The Activity (SH-SY5Y [10]) was “Active”, the Ka [11] was 2.04 10^6/Ms and the Activity (SH-SY5Y [12]) was “inactive”. The Activity (SH-SY5Y [13]) was 79%, the Activity (Rattus norvegicus [14]) was “Active” and the Activity [15] was 67.1%. For the same compound, the DC50 [16] was 34.2 nM, the Activity [17] was “Active” and the Activity [18] was “inactive”. The Activity (Rattus norvegicus [19]) was “Active”, the Activity [20] was “Active” and the Activity (SH-SY5Y [21]) was 12.5%. For the same compound, the Activity [22] was 74.4%, the Activity (SH-SY5Y [23]) was 1% and the Activity (Rattus norvegicus [24]) was “inactive”. For the same compound, the Activity (SH-SY5Y [25]) was 2.8%, the Activity (SH-SY5Y [26]) was 14.3% and the Activity [27] was “inactive”. For the same compound, the DC50 [28] was 28.3 nM, the Activity [29] was 94.3% and the Activity (SH-SY5Y [30]) was 1.2%. It also gave an Activity (SH-SY5Y [31]) of 83%.
